Toxic doses and inconclusive results are not listed.
Tested on: BDF1 mice, P388 leukemia ip, median survival T/C
Experiment: NCI In Vivo Anticancer Drug Screen. Data for tumor model P388 Leukemia (intraperitoneal) in B6D2F1 (BDF1) mice
Conditions: endpoint: median survival time, higher = longer survival
Summary of the method: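 Antitumour effect was judged in vivo: survival in drug-treated mice, normalised to that of vehicle-dosed controls, gives the reported T/C.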

[1] = dose: 25.0 mg/kg/injection, schedule: Q04DX003 (ip), vehicle: saline with Tween-80
[2] = dose: 100.0 mg/kg/injection, schedule: Q04DX003 (ip), vehicle: saline with Tween-80
[3] = dose: 200.0 mg/kg/injection, schedule: Q04DX003 (ip), vehicle: saline with Tween-80
[4] = dose: 6.25 mg/kg/injection, schedule: Q01DX009 (ip), vehicle: saline with Tween-80
[5] = dose: 12.5 mg/kg/injection, schedule: Q01DX009 (ip), vehicle: saline with Tween-80
[6] = dose: 25.0 mg/kg/injection, schedule: Q01DX009 (ip), vehicle: saline with Tween-80
[7] = dose: 50.0 mg/kg/injection, schedule: Q01DX009 (ip), vehicle: saline with Tween-80
[8] = dose: 100.0 mg/kg/injection, schedule: Q01DX009 (ip), vehicle: other
[9] = dose: 200.0 mg/kg/injection, schedule: Q01DX009 (ip), vehicle: other
[10] = dose: 400.0 mg/kg/injection, schedule: Q04DX003 (ip), vehicle: saline with Tween-80
[11] = dose: 100.0 mg/kg/injection, schedule: Q01DX009 (ip), vehicle: Klucel (hydroxypropylcellulose) (HPC)
[12] = dose: 200.0 mg/kg/injection, schedule: Q01DX009 (ip), vehicle: Klucel (hydroxypropylcellulose) (HPC)

SMILES: CCN=C(N)Nc1ccc(NC(=O)c2ccc(C(=O)Nc3ccc(NC(N)=NCC)cc3)cc2)cc1
- T/C (dose: 16.5 mg/kg/injection, schedule: Q04DX003 (ip), vehicle: saline with Tween-80): 213 % of control
- T/C [1]: 218 % of control
- T/C (dose: 37.5 mg/kg/injection, schedule: Q04DX003 (ip), vehicle: saline with Tween-80): 109 % of control
- T/C [2]: 168 % of control
- T/C [3]: 86 % of control

SMILES: CSc1nc(C)cc(=O)[nH]1
- T/C [4]: 105 % of control
- T/C [5]: 103 % of control
- T/C [6]: 115 % of control
- T/C [7]: 108 % of control

SMILES: CC(C)CCCC(C)C1CCC2C3CC=C4CC(O)CCC4(C)C3CCC12C (centres undefined) (tested in a mixture with another compound)
- T/C (dose: 25.0 mg/kg/injection, schedule: Q04DX003 (ip), vehicle: alcohol): 90 % of control
- T/C (dose: 50.0 mg/kg/injection, schedule: Q04DX003 (ip), vehicle: alcohol): 100 % of control
- T/C (dose: 56.25 mg/kg/injection, schedule: Q01DX009 (ip), vehicle: Klucel (hydroxypropylcellulose) (HPC)): 95 % of control
- T/C (dose: 100.0 mg/kg/injection, schedule: Q04DX003 (ip), vehicle: alcohol): 105 % of control
- T/C (dose: 112.5 mg/kg/injection, schedule: Q01DX009 (ip), vehicle: Klucel (hydroxypropylcellulose) (HPC)): 100 % of control
- T/C (dose: 150.0 mg/kg/injection, schedule: Q04DX003 (ip), vehicle: Klucel (hydroxypropylcellulose) (HPC)): 100 % of control
- T/C (dose: 225.0 mg/kg/injection, schedule: Q01DX009 (ip), vehicle: Klucel (hydroxypropylcellulose) (HPC)): 104 % of control
- T/C (dose: 225.0 mg/kg/injection, schedule: Q04DX003 (ip), vehicle: Klucel (hydroxypropylcellulose) (HPC)): 104 % of control

SMILES: CCc1nn2c(=O)nc(Oc3ccccc3)nc2s1
- T/C [7]: 101 % of control
- T/C (dose: 100.0 mg/kg/injection, schedule: Q01DX009 (ip), vehicle: saline with Tween-80): 106 % of control
- T/C (dose: 200.0 mg/kg/injection, schedule: Q01DX009 (ip), vehicle: saline with Tween-80): 98 % of control

SMILES: CNc1ccc(OC)cc1
- T/C [8]: 100 % of control
- T/C [9]: 104 % of control
- T/C (dose: 400.0 mg/kg/injection, schedule: Q01DX009 (ip), vehicle: other): 104 % of control

SMILES: CCOC(=S)SCC(=O)Nc1ccc(S(N)(=O)=O)cc1
- T/C (dose: 15.0 mg/kg/injection, schedule: Q01DX009 (ip), vehicle: saline with Tween-80): 95 % of control
- T/C (dose: 30.0 mg/kg/injection, schedule: Q01DX009 (ip), vehicle: saline with Tween-80): 104 % of control
- T/C (dose: 60.0 mg/kg/injection, schedule: Q01DX009 (ip), vehicle: saline with Tween-80): 113 % of control

SMILES: C1=CC2C3CC(OCCOC4CC5CC4C4CC=CC54)C(C3)C2C1 (centres undefined)
- T/C [2]: 115 % of control
- T/C [3]: 115 % of control
- T/C [10]: 120 % of control

SMILES: CC12CCC(O)CC1CCC1C2CCC2(C)C(C3=CC(=O)OC3)CCC12 (centres undefined)
- T/C (dose: 140.0 mg/kg/injection, schedule: Q01DX010 (ip), vehicle: carboxymethylcellulose (CMC)): 122 % of control
- T/C (dose: 280.0 mg/kg/injection, schedule: Q01DX010 (ip), vehicle: carboxymethylcellulose (CMC)): 122 % of control

SMILES: COc1cc2cc(c1Cl)NC(=O)CC(OC(=O)C(C)N(C)C(C)=O)C1(C)OC1C(C)C1CC(O)(NC(=O)O1)C(OC)C=C/C=C(\C)C2 (centres undefined)
- T/C (dose: 0.1 micrograms/kg/injection, schedule: Q01DX009 (ip), vehicle: saline + alcohol): 120 % of control
- T/C (dose: 0.2 micrograms/kg/injection, schedule: Q01DX009 (ip), vehicle: saline + alcohol): 110 % of control
- T/C (dose: 0.4 micrograms/kg/injection, schedule: Q01DX009 (ip), vehicle: saline + alcohol): 115 % of control
- T/C (dose: 0.8 micrograms/kg/injection, schedule: Q01DX009 (ip), vehicle: saline + alcohol): 110 % of control
- T/C (dose: 6.2 micrograms/kg/injection, schedule: Q01DX009 (ip), vehicle: saline + alcohol): 170 % of control
- T/C (dose: 12.5 micrograms/kg/injection, schedule: Q01DX009 (ip), vehicle: saline + alcohol): 120 % of control
- T/C (dose: 25.0 micrograms/kg/injection, schedule: Q01DX009 (ip), vehicle: saline + alcohol): 185 % of control
- T/C (dose: 50.0 micrograms/kg/injection, schedule: Q01DX009 (ip), vehicle: saline + alcohol): 120 % of control

SMILES: Cc1cccc(C)c1N=CNc1c(C)cccc1C.[Cu+2]
- T/C [6]: 103 % of control
- T/C [7]: 86 % of control

SMILES: O=S(/C=C/c1ccccc1)c1ccccc1 (centres undefined)
- T/C (dose: 50.0 mg/kg/injection, schedule: Q01DX009 (ip), vehicle: other): 104 % of control
- T/C [8]: 100 % of control
- T/C [9]: 104 % of control

SMILES: O=C(NN(c1ccc([N+](=O)[O-])cc1)c1ccc([N+](=O)[O-])cc1)c1ccccc1
- T/C (dose: 50.0 mg/kg/injection, schedule: Q01DX009 (ip), vehicle: Klucel (hydroxypropylcellulose) (HPC)): 100 % of control
- T/C [11]: 105 % of control
- T/C [12]: 105 % of control

SMILES: CC(C)(C)c1cc(C(C)(C)O)c2c(c1)C(C)(C)OS2(C)Cl (centres undefined)
- T/C (dose: 12.5 mg/kg/injection, schedule: Q04DX003 (ip), vehicle: saline with Tween-80): 100 % of control
- T/C [1]: 100 % of control
- T/C (dose: 50.0 mg/kg/injection, schedule: Q04DX003 (ip), vehicle: saline with Tween-80): 96 % of control

SMILES: [Mg+2]
- T/C (dose: 100.0 mg/kg/injection, schedule: Q01DX010 (ip), vehicle: saline): 100 % of control
- T/C (dose: 200.0 mg/kg/injection, schedule: Q01DX010 (ip), vehicle: saline): 100 % of control
- T/C (dose: 400.0 mg/kg/injection, schedule: Q01DX010 (ip), vehicle: saline): 100 % of control

SMILES: C(=N\OCCc1ccccc1)/c1cccnc1
- T/C (dose: 100.0 mg/kg/injection, schedule: Q01DX009 (ip), vehicle: saline sonified): 100 % of control
- T/C (dose: 200.0 mg/kg/injection, schedule: Q01DX009 (ip), vehicle: saline sonified): 110 % of control

SMILES: CC1CCC(NC2=NCCO2)C1 (centres undefined)
- T/C (dose: 100.0 mg/kg/injection, schedule: Q01DX001 (ip), vehicle: saline with Tween-80): 87 % of control
- T/C (dose: 200.0 mg/kg/injection, schedule: Q01DX001 (ip), vehicle: saline with Tween-80): 91 % of control
- T/C (dose: 400.0 mg/kg/injection, schedule: Q01DX001 (ip), vehicle: saline with Tween-80): 95 % of control

SMILES: CCN(CC)C(N)=Nc1ccc(NC(=O)c2ccc(C(=O)Nc3ccc(N=C(N)N(CC)CC)cc3)cc2)cc1
- T/C (dose: 3.12 mg/kg/injection, schedule: Q01DX009 (ip), vehicle: saline): 151 % of control
- T/C (dose: 6.25 mg/kg/injection, schedule: Q01DX009 (ip), vehicle: saline): 196 % of control
- T/C (dose: 12.5 mg/kg/injection, schedule: Q01DX009 (ip), vehicle: saline): 105 % of control

SMILES: Cc1ccc(S(=O)(=O)NC(c2ccccc2)(c2ccccc2)c2ccccc2)cc1
- T/C [11]: 113 % of control
- T/C [12]: 109 % of control
- T/C (dose: 400.0 mg/kg/injection, schedule: Q01DX009 (ip), vehicle: Klucel (hydroxypropylcellulose) (HPC)): 90 % of control

SMILES: COC1OC2COC(c3ccccc3)OC2C2OC12 (centres undefined)
- T/C [4]: 109 % of control
- T/C [5]: 99 % of control
- T/C [6]: 96 % of control
- T/C [7]: 100 % of control
- T/C [2]: 109 % of control
- T/C [3]: 100 % of control
- T/C [10]: 100 % of control

SMILES: COC1/C=C/OC2(C)Oc3c(C)c(O)c4c(O)c5c(c(O)c4c3C2=O)CN(C)C(=N5)/C(C)=C\C=C\C(C)C(O)C(C)C(O)C(C)C(OC(C)=O)C1C (centres undefined)
- T/C (dose: 100.0 mg/kg/injection, schedule: Q04DX002 (ip), vehicle: saline with Tween-80): 97 % of control
- T/C (dose: 200.0 mg/kg/injection, schedule: Q04DX002 (ip), vehicle: saline with Tween-80): 97 % of control
- T/C (dose: 400.0 mg/kg/injection, schedule: Q04DX002 (ip), vehicle: saline with Tween-80): 116 % of control
